Legend:
Assay type in all cases: functional
Nucleic Acid [1] = test: Percentage of cleavage in single stranded peptide nucleic acid was measured after treating with compound for 2 min; selectivity factor=1.5; PNA:DNA=5a:6
Nucleic Acid [2] = test: Percentage of cleavage in single stranded peptide nucleic acid (PNA) DNA duplex was measured after treating with compound for 2 min; selectivity factor=1.5; PNA:DNA=5a:6
Nucleic Acid [3] = test: Percentage of cleavage in single stranded peptide nucleic acid was measured after treating with compound for 30 min; selectivity factor=0.7; PNA:DNA=5a:6
Nucleic Acid [4] = test: Percentage of cleavage in single stranded peptide nucleic acid (PNA) DNA duplex was measured after treating with compound for 30 min; selectivity factor=0.7; PNA:DNA=5a:6
Nucleic Acid [5] = test: Percentage of cleavage in single stranded peptide nucleic acid was measured after treating with compound for 0.5 min; selectivity factor=0.9; PNA:DNA=5a:6
Nucleic Acid [6] = test: Percentage of cleavage in single stranded peptide nucleic acid (PNA) DNA duplex was measured after treating with compound for 0.5 min; selectivity factor=0.9; PNA:DNA=5a:6
Nucleic Acid [7] = test: Percentage of cleavage in single stranded peptide nucleic acid was measured after treating with compound for 30 min; selectivity factor=1; PNA:DNA=5a:6
Nucleic Acid [8] = test: Percentage of cleavage in single stranded peptide nucleic acid (PNA) DNA duplex was measured after treating with compound for 30 min; selectivity factor=1; PNA:DNA=5a:6
Nucleic Acid [9] = test: Percentage of cleavage in single stranded peptide nucleic acid was measured after treating with compound for 10 min; selectivity factor=0.6; PNA:DNA=5a:6
Nucleic Acid [10] = test: Percentage of cleavage in single stranded peptide nucleic acid (PNA) DNA duplex was measured after treating with compound for 10 min; selectivity factor=0.6; PNA:DNA=5a:6
Nucleic Acid [11] = test: Percentage of cleavage in single stranded peptide nucleic acid was measured after treating with compound for 300 min; selectivity factor=23.8; PNA:DNA=5a:6
Nucleic Acid [12] = test: Percentage of cleavage in single stranded peptide nucleic acid (PNA) DNA duplex was measured after treating with compound for 300 min; selectivity factor=4.6; PNA:DNA=5a:6 (with NaCl 0.5 M)
Nucleic Acid [13] = test: Percentage of cleavage in single stranded peptide nucleic acid (PNA) DNA duplex was measured after treating with compound for 300 min; selectivity factor=23.8; PNA:DNA=5a:6
Nucleic Acid [14] = test: Percentage of cleavage in single stranded peptide nucleic acid (PNA)-DNA duplex was measured after treating with compound for 300 min; selectivity factor=10.1; PNA:DNA=5b:7
Nucleic Acid [15] = test: Percentage of cleavage in single stranded peptide nucleic acid (PNA) DNA duplex was measured after treating with compound for 300 min; selectivity factor=2.8; PNA:DNA=5c:8a
Nucleic Acid [16] = test: Percentage of cleavage in single stranded peptide nucleic acid was measured after treating with compound for 300 min; selectivity factor=4.6; PNA:DNA=5a:6 (with NaCl 0.5 M)
Nucleic Acid [17] = test: Percentage of cleavage in single stranded peptide nucleic acid was measured after treating with compound for 300 min; selectivity factor=10.1; PNA:DNA=5b:7
Nucleic Acid [18] = test: Percentage of cleavage in single stranded peptide nucleic acid was measured after treating with compound for 300 min; selectivity factor=2.8; PNA:DNA=5c:8a
Nucleic Acid [19] = test: Percentage of cleavage in single stranded peptide nucleic acid (PNA) DNA duplex was measured after treating with compound for 30 min; selectivity factor=1.6; PNA:DNA=5a:6
Nucleic Acid [20] = test: Percentage of cleavage in single stranded peptide nucleic acid was measured after treating with compound for 30 min; selectivity factor=1.6; PNA:DNA=5a:6
Nucleic Acid [21] = test: Percentage of cleavage in single stranded peptide nucleic acid was measured after treating with compound for 20 min; selectivity factor=17.3; PNA:DNA=5b:7
Nucleic Acid [22] = test: Percentage of cleavage in single stranded peptide nucleic acid (PNA) DNA duplex was measured after treating with compound for 20 min; selectivity factor=2.9; PNA:DNA=5b:7b
Nucleic Acid [23] = test: Percentage of cleavage in single stranded peptide nucleic acid was measured after treating with compound for 20 min; selectivity factor=22.2; PNA:DNA=5c:8b
Nucleic Acid [24] = test: Percentage of cleavage in single stranded peptide nucleic acid was measured after treating with compound for 20 min; selectivity factor=2.9; PNA:DNA=5b:7b
Nucleic Acid [25] = test: Percentage of cleavage in single stranded peptide nucleic acid (PNA) DNA duplex was measured after treating with compound for 20 min; selectivity factor=22.2; PNA:DNA=5c:8b
Nucleic Acid [26] = test: Percentage of cleavage in single stranded peptide nucleic acid (PNA) DNA duplex was measured after treating with compound for 20 min; selectivity factor=17.3; PNA:DNA=5b:7
Nucleic Acid [27] = test: Percentage of cleavage in single stranded peptide nucleic acid (PNA) DNA duplex was measured after treating with compound for 20 min; selectivity factor=25.7; PNA:DNA=5c:8a
Nucleic Acid [28] = test: Percentage of cleavage in single stranded peptide nucleic acid (PNA) DNA duplex was measured after treating with compound for 20 min; selectivity factor=57.1; PNA:DNA=5c:8
Nucleic Acid [29] = test: Percentage of cleavage in single stranded peptide nucleic acid (PNA) DNA duplex was measured after treating with compound for 2 min; selectivity factor>/=1; PNA:DNA=5a:6b
Nucleic Acid [30] = test: Percentage of cleavage in single stranded peptide nucleic acid was measured after treating with compound for 20 min; selectivity factor=25.7; PNA:DNA=5c:8a
Nucleic Acid [31] = test: Percentage of cleavage in single stranded peptide nucleic acid was measured after treating with compound for 2 min; selectivity factor>/=1; PNA:DNA=5a:6b
Nucleic Acid [32] = test: Percentage of cleavage in single stranded peptide nucleic acid was measured after treating with compound for 20 min; selectivity factor=7.4; PNA:DNA=5b:7a
Nucleic Acid [33] = test: Percentage of cleavage in single stranded peptide nucleic acid (PNA) DNA duplex was measured after treating with compound for 2 min; selectivity factor>1; PNA:DNA= 5a:6
Nucleic Acid [34] = test: Percentage of cleavage in single stranded peptide nucleic acid was measured after treating with compound for 2 min; selectivity factor>1; PNA:DNA=5a:6
Nucleic Acid [35] = test: Percentage of cleavage in single stranded peptide nucleic acid (PNA) DNA duplex was measured after treating with compound for 20 min; selectivity factor=7.4; PNA:DNA=5b:7a
Nucleic Acid [36] = test: Percentage of cleavage in single stranded peptide nucleic acid was measured after treating with compound for 20 min; selectivity factor=57.1; PNA:DNA=5c:8
Nucleic Acid [37] = test: Percentage of cleavage in single stranded peptide nucleic acid (PNA) DNA duplex was measured after treating with compound for 30 min; selectivity factor=10.2; PNA:DNA=5a:6
Nucleic Acid [38] = test: Percentage of cleavage in single stranded peptide nucleic acid was measured after treating with compound for 30 min; selectivity factor=10.2; PNA:DNA=5a:6

Which Cleavage (Nucleic Acid [1]) does the source give for `NCCS` here?
The Cleavage was 86.8%.

What about the Cleavage (Nucleic Acid [2]) of the same compound?
Its Cleavage is 56.1%.

Which results are given for `O=C(O)CCS`?
Cleavage (Nucleic Acid [3]): 52.3%; Cleavage (Nucleic Acid [4]): 78.9%

Which Cleavage (Nucleic Acid [5]) does the source give for `CN(C)c1ccc(P(c2ccccc2)c2ccccc2)cc1` here?
Its Cleavage is 19.5%.

What about the Cleavage (Nucleic Acid [6]) of the same compound?
Its Cleavage is 23%.

`O=C(O)c1ccc(P(c2ccccc2)c2ccccc2)cc1` was tested. Which Cleavage (Nucleic Acid [7]) did it give?
Its Cleavage is 92.9%.

And the Cleavage (Nucleic Acid [8])?
The Cleavage was 88.6%.

For `NC(CS)C(=O)O` (stereo not drawn), which Cleavage (Nucleic Acid [9]) is on record?
The Cleavage was 16.2%.

And the Cleavage (Nucleic Acid [10])?
Its Cleavage is 28.4%.

How did the Cleavage (Nucleic Acid [11]) turn out when `O=S(=O)(O)c1ccc(P(c2ccc(S(=O)(=O)O)cc2)c2ccc(S(=O)(=O)O)cc2)cc1` was run?
The Cleavage was 88.1%.

What about the Cleavage (Nucleic Acid [12]) of the same compound?
Its Cleavage is 21%.

What about the Cleavage (Nucleic Acid [13]) of the same compound?
Its Cleavage is 3.7%.

What about the Cleavage (Nucleic Acid [14]) of the same compound?
The Cleavage was 9%.

What about the Cleavage (Nucleic Acid [15]) of the same compound?
Its Cleavage is 34.6%.

What about the Cleavage (Nucleic Acid [16]) of the same compound?
The Cleavage was 97.6%.

What about the Cleavage (Nucleic Acid [17]) of the same compound?
The Cleavage was 91.1%.

What about the Cleavage (Nucleic Acid [18]) of the same compound?
Its Cleavage is 95.2%.

Which results are given for `O=C(O)c1ccccc1P(c1ccccc1)c1ccccc1`?
Cleavage (Nucleic Acid [19]): 43.7%; Cleavage (Nucleic Acid [20]): 69.1%

What does the source list for `O=C(O)CCP(CCC(=O)O)CCC(=O)O`?
Cleavage (Nucleic Acid [21]): 31.2%; Cleavage (Nucleic Acid [22]): 10.8%; Cleavage (Nucleic Acid [23]): 97.6%; Cleavage (Nucleic Acid [24]): 31.2%; Cleavage (Nucleic Acid [25]): 4.4%; Cleavage (Nucleic Acid [26]): 1.8%; Cleavage (Nucleic Acid [27]): 3.8%; Cleavage (Nucleic Acid [28]): 1.7%; Cleavage (Nucleic Acid [29]): 98.6%; Cleavage (Nucleic Acid [30]): 97.6%; Cleavage (Nucleic Acid [31]): 100%; Cleavage (Nucleic Acid [32]): 31.2%; Cleavage (Nucleic Acid [33]): 70.7%; Cleavage (Nucleic Acid [34]): 100%; Cleavage (Nucleic Acid [35]): 4.2%; Cleavage (Nucleic Acid [36]): 97.6%

What does the source list for `OCC(S)C(S)CO` (stereo not drawn)?
Cleavage (Nucleic Acid [37]): 7.6%; Cleavage (Nucleic Acid [38]): 77.2%
